The source of these data is patent US9486435B2, “(Het)aryl-p-quinone derivatives for treatment of mitochondrial diseases” (Edison Pharmaceuticals, Inc., priority 2008, dated 2016).

pEC50: −log10 of the molar value. Where only a bound is given, the exact number is not on record here.

What all share (format): cell-based
Test [1] concerns human dermal fibroblasts from Huntington's patients. Nature of the test: Rescue of BSO-stressed fibroblasts from Huntington's patients. The following applies: Fibroblast, Huntington's fibroblasts GM 04281, BSO stress, read-out: protection against Huntington's, EC50. As to the method:
(§1) An initial screen was performed to identify compounds effective for the amelioration of redox disorders. Test samples, 4 reference compounds (Idebenone, decylubiquinone, Trolox and α-tocopherol acetate), and solvent controls were tested for their ability to rescue FRDA fibroblasts stressed by addition of L-buthionine-(S,R)-sulfoximine (BSO), as described in Jauslin et al., Hum. Mol. Genet. 11(24):3055 (2002), Jauslin et al., FASEB J. 17:1972-4 (2003), and International Patent Application WO 2004/003565. […] This specific BSO-mediated cell death can be prevented by administration of antioxidants or molecules involved in the antioxidant pathway, such as α-tocopherol, selenium, or small molecule glutathione peroxidase mimetics. However, antioxidants differ in their potency, i.e. the concentration at which they are able to rescue BSO-stressed FRDA fibroblasts.
(§2) Test samples were screened according to the following protocol: A culture with FRDA fibroblasts was started from a 1 ml vial with approximately 500,000 cells stored in liquid nitrogen. Cells were propagated in 10 cm cell culture dishes by splitting every third day in a ratio of 1:3 until nine plates were available. Once confluent, fibroblasts were harvested. For 54 micro titer plates (96 well-MTP) a total of 14.3 million cells (passage eight) were re-suspended in 480 ml medium, corresponding to 100 μl medium with 3,000 cells/well. The remaining cells were distributed in 10 cm cell culture plates (500,000 cells/plate) for propagation. The plates were incubated overnight at 37° C. in a atmosphere with 95% humidity and 5% CO2 to allow attachment of the cells to the culture plate.
(§3) MTP medium (243 μl) was added to a well of the microtiter plate. The test compounds were unfrozen, and 7.5 μl of a 5 mM stock solution was dissolved in the well containing 243 μl medium, resulting in a 150 μM master solution. Serial dilutions from the master solution were made. The period between the single dilution steps was kept as short as possible (generally less than 1 second).
(§4) Plates were kept overnight in the cell culture incubator. The next day, 10 μl of a 10 mM BSO solution were added to the wells, resulting in a 1 mM final BSO concentration. Forty-eight hours later, three plates were examined under a phase-contrast microscope to verify that the cells in the 0% control (wells E1-H1) were clearly dead. The medium from all plates was discarded, and the remaining liquid was removed by gently tapping the plate inversed onto a paper towel.
(§5) 100 μl of PBS containing 1.2 μM Calcein AM were then added to each well. The plates were incubated for 50-70 minutes at room temperature. After that time the PBS was discarded, the plate gently tapped on a paper towel and fluorescence (excitation/emission wavelengths of 485 nm and 525 nm, respectively) was read on a Gemini fluorescence reader. Data was imported into Microsoft Excel (EXCEL is a registered trademark of Microsoft Corporation for a spreadsheet program) and used to calculate the EC50 concentration for each compound.
Compounds of the invention were tested using the screen as described in Example A, but substituting FRDA cells with Huntington's cells obtained from the Coriell Cell Repositories (Camden, N.J.; repository number GM 04281). The compounds were tested for their ability to rescue human dermal fibroblasts from Huntington's patients from oxidative stress.

Test [2] has as its system human dermal fibroblasts from LHON patients. Nature of the test: Rescue of BSO-stressed fibroblasts from LHON patients. The following applies: Fibroblast, LHON fibroblasts GM03858, BSO stress, read-out: protection against LHON, EC50. As to the method:
as §1, §2, §3, §4, §5
Compounds of the invention were screened as described in Example A, but substituting FRDA cells with Leber's Hereditary Optic Neuropathy (LHON) cells obtained from the Coriell Cell Repositories (Camden, N.J.; repository number GM03858). The compounds were tested for their ability to rescue human dermal fibroblasts from LHON patients from oxidative stress.

Test [3] relates to human dermal fibroblasts from Parkinson's disease patients. In words: Rescue of BSO-stressed fibroblasts from Parkinson's disease patients. The following applies: Fibroblast, PD fibroblasts AG20439, BSO stress, read-out: protection against PD, EC50. As to the method: as §1, §2, §3, §4, §5
Compounds of the invention were screened as described in Example A, but substituting FRDA cells with Parkinson's Disease (PD) cells obtained from the Coriell Cell Repositories (Camden, N.J.; repository number AG20439). The compounds were tested for their ability to rescue human dermal fibroblasts from Parkinson's disease patients from oxidative stress.

For test [4], the system named is Human dermal fibroblasts from Friedreich's Ataxia patients. In words: Rescue of BSO-stressed FRDA fibroblasts (Calcein AM viability). The following applies: FRDA fibroblasts GM04078, BSO stress, read-out: protection against FRDA, EC50. As to the method:
as §1
MEM (a medium enriched in amino acids and vitamins, catalog no. 1-31F24-I) and Medium 199 (M199, catalog no. 1-21F22-I) with Earle's Balanced Salts, without phenol red, were purchased from Bioconcept. Fetal Calf Serum was obtained from PAA Laboratories. Basic fibroblast growth factor and epidermal growth factor were purchased from PeproTech. Penicillin-streptomycin-glutamine mix, L-buthionine (S,R)-sulfoximine, (+)-α-tocopherol acetate, decylubiquinone, and insulin from bovine pancreas were purchased from Sigma. Trolox (6-hydroxy-2,5,7,8-tetramethylchromane-2-carboxylic acid) was obtained from Fluka. Idebenone was obtained from Chemo Iberica. Calcein AM was purchased from Molecular Probes. Cell culture medium was made by combining 125 ml M 199 EBS, 50 ml Fetal Calf Serum, 100 U/ml penicillin, 100 μg/ml streptomycin, 2 mM glutamine, 10 μg/ml insulin, 10 ng/ml EGF, and 10 ng/ml bFGF; MEM EBS was added to make the volume up to 500 ml. A 10 mM BSO solution was prepared by dissolving 444 mg BSO in 200 ml of medium with subsequent filter-sterilization. During the course of the experiments, this solution was stored at +4° C. The cells were obtained from the Coriell Cell Repositories (Camden, N.J.; repository number GM04078) and grown in 10 cm tissue culture plates. Every third day, they were split at a 1:3 ratio.
The test samples were supplied in 1.5 ml glass vials. The compounds were diluted with DMSO, ethanol or PBS to result in a 5 mM stock solution. Once dissolved, they were stored at −20° C. Reference antioxidants (Idebenone, decylubiquinone, α-tocopherol acetate and trolox) were dissolved in DMSO.
as §2, §3
Plates were kept overnight in the cell culture incubator. The next day, 10 μl of a 10 mM BSO solution were added to the wells, resulting in a 1 mM final BSO concentration. Forty-eight hours later, three plates were examined under a phase-contrast microscope to verify that the cells in the 0% control (wells E1-H1) were clearly dead. […]

`COc1cccc(C2=C(CCC(C)(C)O)C(=O)C(C)=C(C)C2=O)c1` [2-(3-hydroxy-3-methylbutyl)-3-(3-methoxyphenyl)-5,6-dimethyl-cyclohexa-2,5-diene-1,4-dione]: the negative-log EC50 (pEC50) in test [1] is > 6.70.
Take `COc1cc(F)ccc1C1=C(CCC(C)(C)O)C(=O)C(C)=C(C)C1=O` [2-(4-fluoro-2-methoxyphenyl)-3-(3-hydroxy-3-methylbutyl)-5,6-dimethylcyclohexa-2,5-diene-1,4-dione]: in test [1], the pEC50 was > 6.70.
Still for that read-out and setting: then `CC1=C(C)C(=O)C(c2ccc3c(c2)OCO3)=C(CCC(C)(C)O)C1=O` [2-(benzo[d][1,3]dioxol-5-yl)-3-(3-hydroxy-3-methylbutyl)-5,6-dimethylcyclohexa-2,5-diene-1,4-dione], with > 6.70; and `CC1=C(C)C(=O)C(c2ccc(C#N)cc2)=C(CCC(C)(C)O)C1=O` [4-(2-(3-hydroxy-3-methylbutyl)-4,5-dimethyl-3,6-dioxocyclohexa-1,4-dienyl)benzonitrile], with > 6.70.
For the compound `CC1=C(CCC(C)(C)O)C(=O)C(c2ccc(C(F)(F)F)cc2)=C(C)C1=O` [Example 1, 2-(3-Hydroxy-3-methylbutyl)-3,5-dimethyl-6-(4-(trifluoromethyl)phenyl)cyclohexa-2,5-diene-1,4-dione], the negative logarithm of the EC50 (pEC50) in test [2], in test [3], in test [1] and in test [4] was > 6.70 throughout.
Take `COc1ccc(C2=C(C)C(=O)C(C)=C(CCC(C)(C)O)C2=O)cc1` [Example 2, 2-(3-Hydroxy-3-methylbutyl)-6-(4-methoxyphenyl)-3,5-dimethylcyclohexa-2,5-diene-1,4-dione]: the negative logarithm of the EC50 (pEC50) in test [2], in test [3], in test [1] and in test [4] was > 6.70 in each case.
In the case of `CC1=C(CCC(C)(C)O)C(=O)C(c2ccc(C#N)cc2)=C(C)C1=O` [Example 3, 4-(5-(3-Hydroxy-3-methylbutyl)-2,4-dimethyl-3,6-dioxocyclohexa-1,4-dienyl)benzonitrile], the pEC50 in test [2], in test [3] and in test [4] was > 6.70 throughout.
Regarding `CC1=C(CCC(C)(C)O)C(=O)C(c2ccc3ccccc3c2)=C(C)C1=O` [Example 4, 2-(3-Hydroxy-3-methylbutyl)-3,5-dimethyl-6-(naphthalen-2-yl)cyclohexa-2,5-diene-1,4-dione], the pEC50 in test [2], in test [3], in test [1] and in test [4] was > 6.70 throughout.
For the compound `CC1=C(CCC(C)(C)O)C(=O)C(c2ccc(F)c(F)c2)=C(C)C1=O` [Example 5, 2-(3,4-Difluorophenyl)-6-(3-hydroxy-3-methylbutyl)-3,5-dimethylcyclohexa-2,5-diene-1,4-dione], the negative-log EC50 (pEC50) in test [2], in test [3], in test [1] and in test [4] was > 6.70 each time.
On to `CC1=C(C)C(=O)C(c2ccc(F)cc2)=C(CCC(C)(C)O)C1=O` [Example 9, 2-(4-Fluorophenyl)-3-(3-hydroxy-3-methylbutyl)-5,6-dimethylcyclohexa-2,5-diene-1,4-dione], for which the pEC50 in test [2], in test [1] and in test [4] was > 6.70 in each case.
Turning to `CC1=C(C)C(=O)C(c2ccccc2)=C(CCC(C)(C)O)C1=O` [Example 10, 2-(3-Hydroxy-3-methylbutyl)-5,6-dimethyl-3-phenylcyclohexa-2,5-diene-1,4-dione], in test [3], the pEC50 was > 6.70.
Consider `COc1ccc(C2=C(CCC(C)(C)O)C(=O)C(C)=C(C)C2=O)cc1` [Example 12, 2-(3-Hydroxy-3-methylbutyl)-3-(4-methoxyphenyl)-5,6-dimethylcyclohexa-2,5-diene-1,4-dione], for which the negative-log EC50 (pEC50) in test [2] and in test [1] was > 6.70 in each case.
As for `CC1=C(C)C(=O)C(c2cc3ccccc3o2)=C(CCC(C)(C)O)C1=O` [Example 14, 2-(Benzofuran-2-yl)-3-(3-hydroxy-3-methylbutyl)-5,6-dimethylcyclohexa-2,5-diene-1,4-dione], the pEC50 in test [2] and in test [3] was > 6.70 throughout.
`CC1=C(C)C(=O)C(c2ccc(F)c(F)c2)=C(CCC(C)(C)O)C1=O` [Example 21, 2-(3,4-Difluorophenyl)-3-(3-hydroxy-3-methylbutyl)-5,6-dimethylcyclohexa-2,5-diene-1,4-dione]: the negative-log EC50 (pEC50) in test [2], in test [1] and in test [4] was > 6.70 each time.
For `CC1=C(C)C(=O)C(c2ccccc2F)=C(CCC(C)(C)O)C1=O` [Example 22, 2-(2-Fluorophenyl)-3-(3-hydroxy-3-methylbutyl)-5,6-dimethylcyclohexa-2,5-diene-1,4-dione], in test [1], the pEC50 was > 6.70.
As to `CC1=C(C)C(=O)C(Cc2ccccc2)=C(CCC(C)(C)O)C1=O` [Example 23, 2-Benzyl-3-(3-hydroxy-3-methylbutyl)-5,6-dimethylcyclohexa-2,5-diene-1,4-dione], the pEC50 in test [2], in test [1] and in test [4] was > 6.70 in each case.
As to `CC1=C(C)C(=O)C(CCC(C)(C)O)=C(CCc2ccccc2)C1=O` [Example 25, 2-(3-Hydroxy-3-methylbutyl)-5,6-dimethyl-3-phenethylcyclohexa-2,5-diene-1,4-dione], the negative-log EC50 (pEC50) in test [2], in test [3] and in test [1] was > 6.70 throughout.
`CC1=C(C)C(=O)C(C(O)Cc2ccccc2)=C(CCC(C)(C)O)C1=O` (centres unmarked) [Example 26, 2-(1-Hydroxy-2-phenylethyl)-3-(3-hydroxy-3-methylbutyl)-5,6-dimethylcyclohexa-2,5-diene-1,4-dione]: the pEC50 in test [3], in test [1] and in test [4] was > 6.70 each time.

Broadly, the pEC50 is −log10 of the EC50, conventionally taken in molar units.
